Experimental data from paper PMC11258486, “Phase 1 dose escalation study of the MDM2 inhibitor milademetan as monotherapy and in combination with azacitidine in patients with myeloid malignancies” (Cancer Medicine, 2024).
“And” between values parts separate entries of the source, which are not always exact repeats. Equal entries are not always repeated. Structures can show the parent of a compound that is named as a salt.

System: patients with relapsed or refractory acute myeloid leukemia or high‐risk myelodysplastic syndromes
Method: This was a phase 1, open‐label, non‐randomized dose escalation study of milademetan as monotherapy (Part 1) or in combination with AZA (Part 1A; ClinicalTrials.gov identifier: NCT02319369).
Dose escalation of milademetan to determine the maximum tolerated dose (MTD) was guided by a Bayesian logistic regression model (BLRM) following escalation with overdose control principle with a starting dose of 60 mg based on safety and tolerability data from the first‐in‐human study of milademetan in solid tumors or lymphoma.[20]
In Part 1, 9 escalating dose cohorts (Figure S1) were investigated.
In Part 1A, milademetan was given in combination with AZA (75 mg/m^2 dose administered subcutaneously or intravenously on Days 1–7) with 2 dosing schedules of milademetan: in Cohorts 10 and 12, milademetan was administered QD for 10 days (Days 5–14; 160 and 200 mg, respectively); in Cohorts 11 and 13 milademetan was given QD for 7 days (Days 8–14; 160 and 200 mg, respectively).
Safety was the primary endpoint of the study and included treatment‐emergent adverse events (TEAE), serious adverse events (SAE), dose‐limiting toxicities (DLT), physical examination findings, and clinical laboratory values. TEAE were categorized according to the Medical Dictionary for Regulatory Activities (MeDRA) v17.0 and graded according to the National Cancer Institute‐Common Terminology for Adverse Events (NCI‐CTCAE) v5.0. Participants were followed up until 30 days after completion of study treatment. A DLT was defined as any TEAE of grade ≥3 not attributable to disease or disease‐related processes occurring during Cycle 1 in each dose‐level cohort.
The final MTD for each dosing regimen (QD 21/28 dosing and others) was decided based on considerations of the respective MTD estimated by the BLRM and on an overall assessment of safety data from subsequent cycles and pharmacokinetics (PK)/pharmacodynamics (PD) information collected at all different doses tested.
Cohorts of ≥3 DLT evaluable participants were enrolled per dose level, and the dose escalation decisions were guided by BLRM, governed by escalation with overdose control principle.

[1] = not assessed as related to milademetan

## CC1(C)CCC2(CC1)N[C@@H](C(=O)N[C@@H]1CC[C@@H](C(N)=O)OC1)[C@H](c1ccnc(Cl)c1F)[C@]21C(=O)Nc2cc(Cl)ccc21 [Milademetan monotherapy, milademetan tosylate hydrate]
human, in vivo
  Abdominal pain, TEAE Grade ≥3: 1 (2) n (%)
  Cough, TEAE Grade ≥3: 0 n (%)
  Cough, TEAE all grades: 3 (5) n (%)
  Decreased appetite, TEAE Grade ≥3: 1 (2) n (%)
  Decreased appetite, TEAE all grades: 13 (23) n (%)
  Dehydration, TEAE Grade ≥3: 1 (2) n (%)
  Dehydration, TEAE all grades: 6 (11) n (%)
  Depression, TEAE Grade ≥3: 0 n (%)
  Depression, TEAE all grades: 2 (4) n (%)
  Device‐related infection, TEAE Grade ≥3: 0 n (%)
  Device‐related infection, TEAE all grades: 0 n (%)
  Diarrhea, TEAE Grade ≥3: 3 (5) n (%)
  Diarrhea, TEAE all grades: 32 (56) n (%)
  Diarrhea, most common (>20%) TEAE: 25 [44%] n [%]
  Dizziness, TEAE Grade ≥3: 1 (2) n (%)
  Dizziness, TEAE all grades: 6 (11) n (%)
  Dyspnea, TEAE Grade ≥3: 0 n (%)
  Dyspnea, TEAE all grades: 8 (14) n (%)
  Epistaxis, TEAE Grade ≥3: 0 n (%)
  Epistaxis, TEAE all grades: 1 (2) n (%)
  Escherichia infection, TEAE Grade ≥3: 0 n (%)
  Escherichia infection, TEAE all grades: 0 n (%)
  Fatigue, TEAE Grade ≥3: 4 (7) n (%)
  Hyperuricemia, TEAE Grade ≥3: 2 (4) n (%)
  Hyperuricemia, TEAE all grades: 6 (11) n (%)
  Hypokalemia, TEAE Grade ≥3: 3 (5) n (%)
  Hypokalemia, TEAE all grades: 12 (21) n (%)
  Hypomagnesemia, TEAE Grade ≥3: 0 n (%)
  Hypomagnesemia, TEAE all grades: 9 (16) n (%)
  Hyponatremia, TEAE Grade ≥3: 2 (4) n (%)
  Hyponatremia, TEAE all grades: 2 (4) n (%)
  Hypophosphatemia, TEAE Grade ≥3: 0 n (%)
  Hypophosphatemia, TEAE all grades: 0 n (%)
  Hypotension, TEAE Grade ≥3: 2 (4) n (%)
  Hypotension, TEAE all grades: 9 (16) n (%)
  Increased ALT, TEAE Grade ≥3: 0 n (%)
  Increased ALT, TEAE all grades: 1 (2) n (%)
  Insomnia, TEAE Grade ≥3: 0 n (%)
  Insomnia, TEAE all grades: 4 (7) n (%)
  Lung infection, TEAE Grade ≥3: 11 (19) n (%)
  Lung infection, TEAE all grades: 11 (19) n (%)
  Maculopapular rash, TEAE Grade ≥3: 0 n (%)
  Maculopapular rash, TEAE all grades: 2 (4) n (%)
  Muscular weakness, TEAE all grades: 2 (4) n (%)
  Myalgia, TEAE Grade ≥3: 0 n (%)
  Myalgia, TEAE all grades: 1 (2) n (%)
  Nausea, TEAE Grade ≥3: 4 (7) n (%)
  Nausea, TEAE all grades: 39 (68) n (%)
  Nausea, most common (>20%) TEAE: 32 [56%] n [%]
  Neutropenia, TEAE Grade ≥3: 10 (18) n (%)
  Neutropenia, TEAE all grades: 10 (18) n (%)
  Oropharyngeal pain, TEAE Grade ≥3: 0 n (%)
  Oropharyngeal pain, TEAE all grades: 3 (5) n (%)
  Pancytopenia, TEAE Grade ≥3: 0 n (%)
  Pancytopenia, TEAE all grades: 0 n (%)
  Participants with DLT of cellulitis: 1 participant
  Participants with DLT of diarrhea: 1 participant
  Participants with DLT of fatigue: 1 participant
  Participants with DLT of hypokalemia: 1 participant
  Participants with DLT of nausea: 3 participants
  Participants with DLT of renal failure: 1 participant
  Participants with DLT of vomiting: 1 participant
  Peripheral edema, TEAE Grade ≥3: 0 n (%)
  Peripheral edema, TEAE all grades: 14 (25) n (%)
  Pneumonia, TEAE Grade ≥3: 6 (11) n (%)
  Pneumonia, TEAE all grades: 9 (16) n (%)
  Pyrexia, TEAE Grade ≥3: 1 (2) n (%)
  Pyrexia, TEAE all grades: 5 (9) n (%)
  Rhinorrhea, TEAE Grade ≥3: 0 n (%)
  Rhinorrhea, TEAE all grades: 1 (2) n (%)
  SAE: 39 (68.4) n (%)
  SAE: bacteremia: 3 [5%] n [%]
  SAE: cellulitis: 3 [5%] n [%]
  SAE: febrile neutropenia: 5 [9%] n [%]
  SAE: lung infection: 9 [16%] n [%]
  SAE: pneumonia: 7 [12%] n [%]
  SAE: pyrexia: 3 [5%] n [%]
  SAE: sepsis: 7 [12%] n [%]
  Sepsis, TEAE Grade ≥3: 8 (14) n (%)
  Sepsis, TEAE all grades: 8 (14) n (%)
  Tolerability relative to MTD: exceeded MTD
  Vomiting, most common (>20%) TEAE: 15 [26%] n [%]
In vivo
  Participants who experienced DLT: Eight
Monotherapy arm
  Dose interruptions due to TEAE: 12 (21%) n (%)
  Dose reductions due to TEAE: 3 (5%) n (%)
monotherapy, QD 21/28 and QD 14/28 dosing schedules
  Maximum tolerated dose (MTD) of milademetan: 160 mg
[1]
  Event associated with a fatal outcome: intracranial hemorrhage: 1 patient
  Event associated with a fatal outcome: lung infection: 2 patients
  Event associated with a fatal outcome: multi-organ failure: 1 patient
  Event associated with a fatal outcome: pneumonia: 1 patient
  Event associated with a fatal outcome: respiratory failure: 1 patient
  Event associated with a fatal outcome: sepsis: 4 patients
Per investigator assessment, safety analysis set
  Milademetan-related TEAE: 47 (82.5) n (%)
Safety analysis set
  Abdominal pain, TEAE all grades: 7 (12) n (%)
  Anemia, TEAE Grade ≥3: 9 (16) n (%)
  Anemia, TEAE all grades: 13 (23) n (%)
  Any TEAE, Grade ≥3: 48 (84%) n (%) and 48 (84) n (%) and 48 (84.2) n (%)
  Any TEAE, all grades: 57 n (%) and 57 (100) n (%)
  Arthralgia, TEAE Grade ≥3: 0 n (%)
  Arthralgia, TEAE all grades: 3 (5) n (%)
  Asthenia, TEAE Grade ≥3: 1 (2) n (%)
  Asthenia, TEAE all grades: 7 (12) n (%)
  Constipation, TEAE Grade ≥3: 0 n (%)
  Constipation, TEAE all grades: 3 (5) n (%)
  Contusion, TEAE Grade ≥3: 0 n (%)
  Contusion, TEAE all grades: 2 (4) n (%)
  Fatigue, TEAE all grades: 20 (35) n (%)
  Febrile neutropenia, TEAE Grade ≥3: 5 (9) n (%)
  Febrile neutropenia, TEAE all grades: 6 (11) n (%)
  Fluid overload, TEAE Grade ≥3: 0 n (%)
  Fluid overload, TEAE all grades: 2 (4) n (%)
  Fungal pneumonia, TEAE Grade ≥3: 2 (4) n (%)
  Fungal pneumonia, TEAE all grades: 2 (4) n (%)
  Headache, TEAE Grade ≥3: 0 n (%)
  Headache, TEAE all grades: 2 (4) n (%)
  Hemorrhoids, TEAE Grade ≥3: 1 (2) n (%)
  Hemorrhoids, TEAE all grades: 3 (5) n (%)
  Malaise, TEAE Grade ≥3: 0 (0) n (%)
  Malaise, TEAE all grades: 6 (11) n (%)
  Milademetan-related Grade ≥3 TEAE: 19 (33%) n (%) and 19 (33.3) n (%)
  Milademetan-related SAE: 7 (12%) n (%) and 7 (12.3) n (%)
  Milademetan-related TEAE associated with milademetan discontinuation: 5 (8.8) n (%)
  Muscular weakness, TEAE Grade ≥3: 0 n (%)
  TEAE associated with death: 9 (16%) n (%) and 9 (15.8)^a n (%)
  TEAE associated with milademetan discontinuation: 13 (23%) n (%) and 13 (22.8) n (%)
  Thrombocytopenia, TEAE Grade ≥3: 15 (26) n (%)
  Thrombocytopenia, TEAE all grades: 15 (26) n (%)
  Vomiting, TEAE Grade ≥3: 2 (4) n (%)
  Vomiting, TEAE all grades: 24 (42) n (%)
